This passage reports Activity results from ChEMBL document CHEMBL2034959, “Hesperetin upregulates ABCA1 expression and promotes cholesterol efflux from THP-1 macrophages” (J Nat Prod, 2012).

What all share (type): cell-based
Series [1] concerns the target T1, Oxysterols receptor LXR-alpha (Homo sapiens) (UniProt Q13133).
T1 sequence (whole entry): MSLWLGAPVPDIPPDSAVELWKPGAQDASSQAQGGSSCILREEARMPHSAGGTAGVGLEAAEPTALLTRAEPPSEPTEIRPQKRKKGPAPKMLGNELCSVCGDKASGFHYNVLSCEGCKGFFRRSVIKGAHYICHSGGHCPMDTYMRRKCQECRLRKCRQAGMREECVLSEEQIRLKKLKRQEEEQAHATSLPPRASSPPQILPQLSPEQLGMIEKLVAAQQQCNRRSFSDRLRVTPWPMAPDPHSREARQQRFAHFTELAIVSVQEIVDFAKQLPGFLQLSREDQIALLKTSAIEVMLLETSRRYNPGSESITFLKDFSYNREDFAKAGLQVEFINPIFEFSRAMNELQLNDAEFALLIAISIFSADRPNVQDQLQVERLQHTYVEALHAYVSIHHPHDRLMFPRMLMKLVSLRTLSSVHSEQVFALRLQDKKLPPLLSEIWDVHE
Description: Induction of LXRalpha enhancer activity in human THP1 cells after 24 hrs by luciferase reporter gene analysis. As to conditions: THP-1. For orientation: In a reporter assay the amount or activity of a reporter protein is the signal.

Series [2] addresses T1, Oxysterols receptor LXR-alpha (Homo sapiens). Description: Induction of LXRalpha-mediated ABCA1 promoter activity in human THP1 cells after 24 hrs by luciferase reporter gene analysis. Conditions: THP-1.
For series [3] the target is unchanged. Description: Increase in LXRalpha-mediated ABCA1 mRNA expression in human THP1 cells at 5 to 15 uM after 24 hrs by RT-PCR analysis. As to conditions: THP-1.
Series [4] shares this target. Briefly: Increase in LXRalpha-mediated ABCA1 protein expression in human THP1 cells at 5 to 15 uM after 48 hrs by Western blotting analysis. Conditions: THP-1. On the technique in general: In western blotting, separated proteins are transferred to a membrane and probed.
The target of series [5] is T2, Peroxisome proliferator-activated receptor gamma (Homo sapiens) (UniProt P37231).
T2 sequence (whole entry): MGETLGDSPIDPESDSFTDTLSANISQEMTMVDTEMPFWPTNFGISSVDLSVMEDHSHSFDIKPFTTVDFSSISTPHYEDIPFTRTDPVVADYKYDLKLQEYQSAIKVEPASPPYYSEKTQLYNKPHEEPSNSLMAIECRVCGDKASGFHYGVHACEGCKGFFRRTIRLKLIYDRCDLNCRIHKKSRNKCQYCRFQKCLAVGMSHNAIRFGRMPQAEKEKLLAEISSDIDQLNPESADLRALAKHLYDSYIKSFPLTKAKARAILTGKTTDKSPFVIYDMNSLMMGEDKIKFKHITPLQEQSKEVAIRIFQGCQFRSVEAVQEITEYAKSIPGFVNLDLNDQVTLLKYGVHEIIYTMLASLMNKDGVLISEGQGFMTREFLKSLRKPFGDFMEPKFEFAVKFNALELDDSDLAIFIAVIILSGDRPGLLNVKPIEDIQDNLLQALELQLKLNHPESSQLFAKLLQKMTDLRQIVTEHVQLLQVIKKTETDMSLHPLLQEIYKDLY
Briefly: Induction of PPARgamma enhancer activity in human THP1 cells after 24 hrs by luciferase reporter gene analysis. As to conditions: THP-1.

Series [6] has as its target T2, Peroxisome proliferator-activated receptor gamma (Homo sapiens). Briefly: Induction of PPARgamma-mediated ABCA1 promoter activity in human THP1 cells after 24 hrs by luciferase reporter gene analysis. As to conditions: THP-1.
For the next series, the system named is THP-1. Briefly: Cytotoxicity against human THP1 cells up to 100 uM after 24 hrs by WST8 assay. Conditions: thp-1, 24 h.

Molecules are shown by their SMILES. Active and inactive are the calls of the source. The calls are words filed in the database; no cut-off is given here.

In the case of `COc1ccc([C@@H]2CC(=O)c3c(O)cc(O)cc3O2)cc1O` [HESPERETIN], the Activity result in series [1] was “Dose-dependent effect”; in series [5], “Dose-dependent effect”; in the series on THP-1, “Non-toxic”. Also, the outcome in series [2], in series [3], in series [4] and in series [6] was Active.
